Test results as given in publication PMC10975828, “Screening for Active Compounds of Acorus calamus against SARS-CoV-2 Viral Protease and Mechanism Prediction” (Pharmaceuticals, 2024).
Read-outs that look alike come from different tables or passages of the source.

Legend:
SARS-CoV-2 Mpro = SARS-CoV-2 Mpro (Severe acute respiratory syndrome coronavirus 2, UniProt P0DTD1); assay: SARS-CoV-2 Mpro inhibition assay (fluorescence, 96-well); type: biochemical; conditions: for percent inhibition at 5 µM: read-out: Inhibition at 5 μM (%); for IC50: Mpro 1 µM, inhibitor 0–20 µM, substrate 20 µM; for enzyme activity: at a concentration of 5 μM
SARS-CoV-2 PLpro = SARS-CoV-2 PLpro (Severe acute respiratory syndrome coronavirus 2, UniProt P0DTD1); assay: SARS-CoV-2 PLpro inhibition assay (fluorescence, 96-well); type: biochemical; conditions: for percent inhibition of PLpro at 5 µM: read-out: Inhibition at 5 μM (%); for enzyme activity: 5 μM screening
PC12 cell = tested on: PC12 cell; set-up: method as in PMID 28695650; conditions: previous studies; cited from earlier work
[1] = PLpro 1 µM, inhibitor 0–20 µM, substrate 20 µM, read-out: IC50
[2] = Mpro, inhibitor 5 μM, substrate 1 μM, triplicate, 25 °C
[3] = PLpro, inhibitor 5 μM, substrate 1 μM, triplicate, 25 °C

Compound | percent inhibition at 5 µM (SARS-CoV-2 Mpro) | percent inhibition of PLpro at 5 µM (SARS-CoV-2 PLpro) | percent inhibition at 5 µM (SARS-CoV-2 Mpro; [2]) | percent inhibition of PLpro at 5 µM (SARS-CoV-2 PLpro; [3]) | also measured
CC1(O)CCC2C(C3C1CCC3(C)O)C2(C)C (single isomer, unassigned; (-)) [Compound 5, (-)-alloaromadendrane-3β,9β-diol] | 78.33 ± 0.25% | 14.4 ± 0.88% | – | – | –
CC(C)C1CCC(C)(O)C2CCC(C)(O)C2C1=O [1R,5R,7S-guaiane-4R,10R-diol-6-one] | – | – | – | – | IC50 (SARS-CoV-2 PLpro; [1]): 0.386 ± 0.118 µM
CC(C)C1CCC(C)(O)C2CCC(C)(O)C2C1=O [Compound 1, 1R,5R,7S-guaiane-4R,10R-diol-6-one] | – | – | 83.61 ± 0.01% | 6.41 ± 0.43% | enzyme activity (SARS-CoV-2 PLpro; PLpro): below 10%
CC1=CCC(C(C)C)C(O)C2C1CCC2(C)O (stereo not drawn) [Compound 2, 4β,6β-dihydroxy-1α,5β(H)-guai-9-ene] | 85.9 ± 0.61% | 14 ± 1.95% | – | – | –
C=C1CCC(C(C)C)C(O)C2C1CCC2(C)O (stereo not drawn) [Compound 3, 4β,6β-dihydroxy-1α,5β(H)-guai-10(14)-ene] | 74.7 ± 0.05% | 11.3 ± 0.55% | – | – | –
CC(C)C1CCC(C)(O)C2CCC(C)(O)C2C1O (stereo not shown) [Compound 4, teuclatriol] | 87.19 ± 0.31% | 11.8 ± 1.99% | – | – | –
C=C1CC[C@@H]2[C@@](O)(C1)[C@H](C(C)C)CC[C@@]2(C)O [Compound 6, isocalamendiol] | – | – | 80.31 ± 0.79% | 6.89 ± 1.65% | IC50 (SARS-CoV-2 PLpro; [1]): 1.67 ± 0.496 µM; enzyme activity (SARS-CoV-2 PLpro; PLpro): below 10%
C=C1CC[C@@H]2[C@@](O)(C1)[C@H](C(C)C)CC[C@]2(C)O [Compound 7, calamendiol] | – | – | 78.58 ± 0.67% | 20.1 ± 2.96% | –
C=C1CC[C@@H]2[C@](C)(O)[C@H](O)C[C@H](C(C)C)[C@@]2(O)C1 [Compound 9, calamentriol A] | 82.9 ± 7.31% | 22.3 ± 4.83% | – | – | –
CC1=CC[C@H]2[C@](O)(C1)[C@@H](C(C)C)CC[C@@]2(C)O [Compound 10, 1β,7β(H)-3-cadinadiene-6α,10α-diol] | 85.6 ± 0.88% | 26.6 ± 3.38% | – | – | –
CC(C)[C@@H]1CC[C@](C)(O)[C@@H]2CC[C@](C)(O)C[C@]21O [Compound 11, calamentriol B] | 80.5 ± 4.82% | 38.4 ± 7.04% | – | – | –
CC(C)[C@H]1CC[C@](C)(O)[C@H]2CC[C@@](O)(CO)C[C@]12O [Compound 12, calamentriol C] | 70.9 ± 1.17% | 25.8 ± 2.25% | – | – | –
CC(C)C1CCC(C)(O)C2=C1C(=O)C(C)(O)CC2O (stereo not shown) [Compound 13, menecubebane B] | – | – | 41.1 ± 8.77% | 24.9 ± 4.91% | IC50 (SARS-CoV-2 Mpro): 1.72 ± 0.394 µM; enzyme activity (SARS-CoV-2 Mpro; Mpro): less than 50%; IC50 (SARS-CoV-2 PLpro; [1]): 2.53 ± 0.885 µM
CC1=C[C@H]2[C@@H](C(C)C)CC[C@@](C)(O)[C@]2(O)[C@@H](O)C1 [Compound 14, calamentriol D] | 81.9 ± 1.31% | 25.4 ± 1.43% | – | – | –
CC(C)[C@@H]1CCC(=O)C2=C1[C@H](O)[C@](C)(O)CC2 [Compound 15, oxyphyllenodiols A] | 79.3 ± 10.4% | 35.3 ± 2.35% | – | – | –
CC(C)C1=CC[C@@]2(C)[C@H](O)CC[C@](C)(O)[C@@H]2C1 [Compound 16, oplodiol] | 78.2 ± 12.9% | 33.6 ± 2.46% | – | – | –
CC(C)C1CCC2(C)C(O)CCC(C)(O)C2C1O (stereo not shown) [Compound 17, ananosmin] | 74.6 ± 5.21% | 29.8 ± 1.54% | – | – | –
CC(=O)CC[C@@]12CC(=O)O[C@]1(C(C)C)C(=O)C[C@@H]2C [Compound 18, neo-acorane A] | – | – | 31 ± 1.26% | 31.7 ± 8.07% | IC50 (SARS-CoV-2 Mpro): 0.63 ± 0.364 µM; enzyme activity (SARS-CoV-2 Mpro; Mpro): less than 50%; IC50 (SARS-CoV-2 PLpro; [1]): 1.89 ± 0.375 µM
CC(C)C(=O)[C@@]1([C@H](C)CC(=O)O)CC[C@@H](C)C(=O)C1 [Compound 19, acoric acid] | – | – | 75.55 ± 0.24% | 7.9 ± 1.94% | IC50 (SARS-CoV-2 PLpro; [1]): 1.45 ± 0.429 µM; enzyme activity (SARS-CoV-2 PLpro; PLpro): below 10%
CC1CC(=O)C(O)(C(C)C)C12CCC(C)(O)C(=O)C2 (stereo not shown) [Compound 20, calamusin D] | 79.7 ± 8.49% | 22.2 ± 3.58% | – | – | –
CC(=O)C1CCC2C1C(C(C)C)CCC2(C)O (stereo not shown) [Compound 21, oplopanone A] | 83.3 ± 4.06% | 33.9 ± 5.49% | – | – | –
CC(C)(O)C[C@H]1CC[C@@]2(C)[C@H](O)CC[C@](C)(O)[C@H]12 [Compound 22, bullatantriol] | – | – | 82.8 ± 1.58% | 10.6 ± 2.59% | IC50 (SARS-CoV-2 PLpro; [1]): 1.26 ± 0.321 µM; enzyme activity (SARS-CoV-2 PLpro; PLpro): below 10%
COc1cc2ccnc3c2c(c1O)-c1c-3cccc(OC)c1=O [Compound 23, neo-tatarine] | – | – | 81.5 ± 3.65% | 6.71 ± 3.23% | IC50 (SARS-CoV-2 PLpro; [1]): 0.743 ± 0.187 µM; enzyme activity (SARS-CoV-2 PLpro; PLpro): below 10%; inhibitory effect on Aβ25-35-induced PC12 cell death (PC12 cell): significant inhibitory effect
COc1cc(OC)c(OC)cc1C=O [Compound 24, 2,4,5-trimethoxybenzaldehyde] | 68.9 ± 0.71% | 9.54 ± 0.61% | – | – | IC50 (SARS-CoV-2 PLpro): 3.92 ± 1.29 µM; enzyme activity (SARS-CoV-2 PLpro; PLpro): below 10%
calamusin H [Compound 8] | – | – | – | 14.2 ± 0.93% | percent inhibition (SARS-CoV-2 Mpro; [2]): 81.7 ± 6.15%
